Data: PMC11329505 (Communications Chemistry, 2024)

Key:
AGAL5 = target: T1, AGAL5 (Blautia pseudococcoides, UniProt A0A1C7IHX3); assay: pNP-αGal colorimetric assay with additive; format: biochemical; settings: 5 mM maltose; pNP-αGal substrate
T1 sequence (A0A1C7IHX3 1-763): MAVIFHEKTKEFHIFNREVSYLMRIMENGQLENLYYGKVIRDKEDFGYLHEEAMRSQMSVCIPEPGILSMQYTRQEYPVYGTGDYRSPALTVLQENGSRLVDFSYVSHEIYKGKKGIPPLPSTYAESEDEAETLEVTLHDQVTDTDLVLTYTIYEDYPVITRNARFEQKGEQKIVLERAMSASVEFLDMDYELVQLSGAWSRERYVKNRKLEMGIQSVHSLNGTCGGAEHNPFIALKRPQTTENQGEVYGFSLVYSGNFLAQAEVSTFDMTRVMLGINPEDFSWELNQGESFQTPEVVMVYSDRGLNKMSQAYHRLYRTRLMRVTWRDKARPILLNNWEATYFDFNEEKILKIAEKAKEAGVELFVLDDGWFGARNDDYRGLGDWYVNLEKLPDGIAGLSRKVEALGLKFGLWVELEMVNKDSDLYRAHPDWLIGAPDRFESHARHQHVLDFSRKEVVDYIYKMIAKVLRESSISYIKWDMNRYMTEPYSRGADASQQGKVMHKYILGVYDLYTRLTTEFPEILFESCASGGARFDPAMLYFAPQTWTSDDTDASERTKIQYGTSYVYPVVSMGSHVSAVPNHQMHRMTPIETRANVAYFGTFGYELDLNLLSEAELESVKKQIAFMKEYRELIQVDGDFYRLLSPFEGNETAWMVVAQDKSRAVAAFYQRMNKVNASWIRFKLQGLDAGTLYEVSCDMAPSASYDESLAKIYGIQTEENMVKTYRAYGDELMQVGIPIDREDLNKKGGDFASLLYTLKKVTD

AGAL3 = target: T2, AGAL3 (Turicibacter bilis, UniProt A0A9Q9CI38); assay: pNP-αGal colorimetric assay with additive; format: biochemical; settings: 5 mM maltose; pNP-αGal substrate
T2 sequence (A0A9Q9CI38 1-743): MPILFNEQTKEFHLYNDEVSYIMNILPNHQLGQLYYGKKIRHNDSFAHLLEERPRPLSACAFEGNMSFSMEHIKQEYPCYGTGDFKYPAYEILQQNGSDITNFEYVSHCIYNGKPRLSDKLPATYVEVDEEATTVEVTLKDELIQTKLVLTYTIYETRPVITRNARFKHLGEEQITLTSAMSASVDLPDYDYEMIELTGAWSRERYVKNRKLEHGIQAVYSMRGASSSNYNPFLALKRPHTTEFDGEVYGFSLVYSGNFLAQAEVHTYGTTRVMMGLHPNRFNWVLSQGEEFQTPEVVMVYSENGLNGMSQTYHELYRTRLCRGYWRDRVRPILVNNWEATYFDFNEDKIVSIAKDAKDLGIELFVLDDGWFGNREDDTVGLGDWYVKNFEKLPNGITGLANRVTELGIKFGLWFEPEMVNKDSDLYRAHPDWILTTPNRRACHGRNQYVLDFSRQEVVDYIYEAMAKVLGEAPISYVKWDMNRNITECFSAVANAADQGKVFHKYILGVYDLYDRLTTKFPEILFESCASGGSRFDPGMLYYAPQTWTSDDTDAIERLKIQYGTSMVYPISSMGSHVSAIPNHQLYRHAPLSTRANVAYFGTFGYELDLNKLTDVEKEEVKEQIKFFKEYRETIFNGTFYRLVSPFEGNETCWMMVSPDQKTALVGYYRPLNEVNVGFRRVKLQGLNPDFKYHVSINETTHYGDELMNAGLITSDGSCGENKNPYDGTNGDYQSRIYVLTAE

## OC[C@H]1O[C@H](O[C@H]2[C@H](O)[C@@H](O)C(O)O[C@@H]2CO)[C@H](O)[C@@H](O)[C@@H]1O (some centres unmarked) [maltose]
AGAL5
  inhibition at 5 mM: maltose had an inhibitory effect on AGAL3 and AGAL5
AGAL3
  inhibition at 5 mM: maltose had an inhibitory effect on AGAL3 and AGAL5
